Source: PubChem BioAssay AID248 (DTP/NCI, 2004)
Several values for one entry are separate records, joined by “and”; a condition that tells them apart may be missing. Equal entries are not always repeated. Inconclusive results and toxic doses are left out. No stated cut-off is given here; in the data, active means T/C of 150% or more; inactive means T/C below 125%.

Test system: L1210 leukemia ip in BDF1 mice, survival T/C
Test: NCI In Vivo Anticancer Drug Screen. Data for tumor model L1210 Leukemia (intraperitoneal) in B6D2F1 (BDF1) mice
Settings: endpoint: mean survival time, higher = longer survival
How it was run: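 Antitumor effect is assessed in tumor-bearing animals. Survival in the compound arm is compared with a vehicle-dosed control arm and expressed as their quotient.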

[1] = dose: 100.0 mg/kg/injection, schedule: Q01DX001 (ip), vehicle: Klucel (hydroxypropylcellulose) (HPC)
[2] = dose: 200.0 mg/kg/injection, schedule: Q01DX001 (ip), vehicle: Klucel (hydroxypropylcellulose) (HPC)
[3] = dose: 100.0 mg/kg/injection, schedule: Q04DX002 (ip), vehicle: Klucel (hydroxypropylcellulose) (HPC)
[4] = dose: 200.0 mg/kg/injection, schedule: Q04DX002 (ip), vehicle: Klucel (hydroxypropylcellulose) (HPC)
[5] = dose: 100.0 mg/kg/injection, schedule: Q01DX009 (ip), vehicle: saline
[6] = dose: 50.0 mg/kg/injection, schedule: Q01DX001 (ip), vehicle: carboxymethylcellulose (CMC)
[7] = dose: 100.0 mg/kg/injection, schedule: Q01DX001 (ip), vehicle: carboxymethylcellulose (CMC)
[8] = dose: 200.0 mg/kg/injection, schedule: Q01DX001 (ip), vehicle: carboxymethylcellulose (CMC)
[9] = dose: 400.0 mg/kg/injection, schedule: Q01DX001 (ip), vehicle: carboxymethylcellulose (CMC)
[10] = dose: 100.0 mg/kg/injection, schedule: Q01DX009 (ip), vehicle: Klucel (hydroxypropylcellulose) (HPC)
[11] = dose: 400.0 mg/kg/injection, schedule: Q01DX009 (ip), vehicle: Klucel (hydroxypropylcellulose) (HPC)
[12] = dose: 100.0 mg/kg/injection, schedule: Q04DX002 (ip), vehicle: saline with Tween-80
[13] = dose: 200.0 mg/kg/injection, schedule: Q04DX002 (ip), vehicle: saline with Tween-80
[14] = dose: 400.0 mg/kg/injection, schedule: Q04DX002 (ip), vehicle: saline with Tween-80

Measured: T/C

CN(C)C=Nc1cc2c3c(c1)CCCN3CCC2
inactive: dose: 12.5 mg/kg/injection, schedule: Q01DX001 (ip), vehicle: saline 103 % of control | dose: 25.0 mg/kg/injection, schedule: Q01DX001 (ip), vehicle: saline 105 % of control

COc1ccccc1-n1c(=O)c(N=Nc2ccc(Br)cc2)c(O)n(-c2ccccc2C)c1=S
inactive: [1] 109 % of control | [2] 98 % of control | dose: 400.0 mg/kg/injection, schedule: Q01DX001 (ip), vehicle: Klucel (hydroxypropylcellulose) (HPC) 98 % of control

C=CCNC(=S)Nc1cccc2ccccc12
inactive: dose: 12.5 mg/kg/injection, schedule: Q04DX003 (ip), vehicle: Klucel (hydroxypropylcellulose) (HPC) 105 % of control | dose: 25.0 mg/kg/injection, schedule: Q04DX003 (ip), vehicle: Klucel (hydroxypropylcellulose) (HPC) 96 % of control | dose: 50.0 mg/kg/injection, schedule: Q04DX003 (ip), vehicle: Klucel (hydroxypropylcellulose) (HPC) 105 % of control

O=C(NCc1ccncc1)Nc1ccccc1
inactive: [3] 103 % of control | [4] 103 % of control | dose: 400.0 mg/kg/injection, schedule: Q04DX002 (ip), vehicle: Klucel (hydroxypropylcellulose) (HPC) 106 % of control

O=C(O)/C=C\Cl
inactive: dose: 25.0 mg/kg/injection, schedule: Q01DX009 (ip), vehicle: saline 104 % of control | dose: 50.0 mg/kg/injection, schedule: Q01DX009 (ip), vehicle: saline 98 % of control | [5] 96 % of control | dose: 100.0 mg/kg/injection, schedule: Q04DX002 (ip), vehicle: saline 100 % of control and 94 % of control | dose: 200.0 mg/kg/injection, schedule: Q04DX002 (ip), vehicle: saline 93 % of control and 105 % of control | dose: 400.0 mg/kg/injection, schedule: Q04DX002 (ip), vehicle: saline 102 % of control

CC(C)(C)C1CCC2(CC1)CCN(N1CCCCCC1)CC2
inactive: [6] 101 % of control | [7] 111 % of control | [8] 95 % of control | [9] 103 % of control

c1ccc2c(Nc3ccc(C4=NCCN4)cc3)nnc(Nc3ccc(C4=NCCN4)cc3)c2c1
inactive: dose: 38.0 mg/kg/injection, schedule: Q01DX Z (ip), vehicle: carboxymethylcellulose (CMC) 110 % of control | dose: 62.5 mg/kg/injection, schedule: Q01DX Z (oral), vehicle: saline 103 % of control | dose: 63.0 mg/kg/injection, schedule: Q01DX Z (oral), vehicle: water 95 % of control | dose: 125.0 mg/kg/injection, schedule: Q01DX Z (oral), vehicle: saline 103 % of control | dose: 125.0 mg/kg/injection, schedule: Q01DX Z (oral), vehicle: water 87 % of control | dose: 187.5 mg/kg/injection, schedule: Q01DX Z (ip), vehicle: carboxymethylcellulose (CMC) 119 % of control | dose: 250.0 mg/kg/injection, schedule: Q01DX Z (oral), vehicle: saline 105 % of control | dose: 500.0 mg/kg/injection, schedule: Q01DX Z (oral), vehicle: water 87 % of control
active: dose: 84.0 mg/kg/injection, schedule: Q01DX Z (ip), vehicle: carboxymethylcellulose (CMC) 170 % of control

Clc1nc2ccccc2nc1C(Cl)Cl
inactive: [1] 101 % of control | [2] 110 % of control

O=[N+]([O-])c1ccc(Cl)c(OCCBr)c1
inactive: dose: 100.0 mg/kg/injection, schedule: Q01DX009 (ip), vehicle: gum acacia 95 % of control | dose: 200.0 mg/kg/injection, schedule: Q01DX009 (ip), vehicle: gum acacia 94 % of control | dose: 400.0 mg/kg/injection, schedule: Q01DX009 (ip), vehicle: gum acacia 89 % of control

O=C(/C=C/C(=O)c1ccc(-c2ccccc2)cc1)c1ccc(-c2ccccc2)cc1
inactive: dose: 50.0 mg/kg/injection, schedule: Q01DX009 (ip), vehicle: Klucel (hydroxypropylcellulose) (HPC) 92 % of control | [10] 87 % of control | dose: 200.0 mg/kg/injection, schedule: Q01DX009 (ip), vehicle: Klucel (hydroxypropylcellulose) (HPC) 90 % of control | [11] 87 % of control

O=C(O)CCN(CCC(=O)O)CCC(=O)O
inactive: dose: 44.0 mg/kg/injection, schedule: Q01DX009 (ip), vehicle: alkali diluted with saline 97 % of control | dose: 66.0 mg/kg/injection, schedule: Q01DX009 (ip), vehicle: saline 96 % of control | dose: 67.0 mg/kg/injection, schedule: Q01DX009 (ip), vehicle: alkali diluted with saline 98 % of control | dose: 100.0 mg/kg/injection, schedule: Q01DX009 (ip), vehicle: alkali diluted with saline 101 % of control | [5] 94 % of control | dose: 100.0 mg/kg/injection, schedule: Q04DX003 (ip), vehicle: alkali diluted with saline 100 % of control | dose: 150.0 mg/kg/injection, schedule: Q01DX009 (ip), vehicle: alkali diluted with saline 103 % of control | dose: 150.0 mg/kg/injection, schedule: Q01DX009 (ip), vehicle: saline 102 % of control | dose: 200.0 mg/kg/injection, schedule: Q01DX009 (ip), vehicle: saline with Tween-80 101 % of control | dose: 200.0 mg/kg/injection, schedule: Q04DX003 (ip), vehicle: alkali diluted with saline 108 % of control | dose: 400.0 mg/kg/injection, schedule: Q01DX009 (ip), vehicle: saline with Tween-80 100 % of control | dose: 400.0 mg/kg/injection, schedule: Q04DX003 (ip), vehicle: alkali diluted with saline 97 % of control

OC(CN1CCCCC1)c1cccs1 (stereo not drawn)
inactive: dose: 6.25 mg/kg/injection, schedule: Q04DX003 (ip), vehicle: saline with Tween-80 94 % of control | dose: 12.5 mg/kg/injection, schedule: Q04DX003 (ip), vehicle: saline with Tween-80 97 % of control | dose: 25.0 mg/kg/injection, schedule: Q04DX003 (ip), vehicle: saline with Tween-80 94 % of control

CCNC(=O)NCc1ccc(Cl)c(Cl)c1
inactive: [3] 105 % of control | [4] 99 % of control

O=c1[nH]c(=S)[nH]c2c1CP(=S)(c1ccccc1)CC2 (stereo not drawn)
inactive: [12] 106 % of control | [13] 100 % of control | [14] 100 % of control

N#CCC(C(=O)c1cccnc1)c1ccccc1 (stereo not drawn)
inactive: dose: 100.0 mg/kg/injection, schedule: Q04DX002 (ip), vehicle: gum acacia 104 % of control | dose: 200.0 mg/kg/injection, schedule: Q04DX002 (ip), vehicle: gum acacia 87 % of control

O=C1OCC/C1=C\c1ccc2c(c1)OCO2
inactive: dose: 100.0 mg/kg/injection, schedule: Q04DX003 (ip), vehicle: saline with Tween-80 105 % of control | dose: 200.0 mg/kg/injection, schedule: Q04DX003 (ip), vehicle: saline with Tween-80 101 % of control | dose: 400.0 mg/kg/injection, schedule: Q04DX003 (ip), vehicle: saline with Tween-80 90 % of control

O=C1CN(/N=C/c2ccc(-c3ccc(Cl)c(Cl)c3)o2)C(=O)N1
inactive: dose: 50.0 mg/kg/injection, schedule: Q04DX002 (ip), vehicle: Klucel (hydroxypropylcellulose) (HPC) 100 % of control | [3] 110 % of control | [4] 95 % of control

CCCc1ccc(OCC=C(C)C)cc1
inactive: dose: 50.0 mg/kg/injection, schedule: Q04DX002 (ip), vehicle: saline with Tween-80 100 % of control | [12] 100 % of control

Cc1onc(-c2ccccc2Cl)c1C(=O)NCC(=O)O
inactive: [12] 104 % of control | [13] 100 % of control | [14] 100 % of control

C=CC12CN(C)C3C4COC(CC41)C1(C(=O)Nc4ccccc41)C32 (stereo not drawn)
inactive: dose: 75.0 mg/kg/injection, schedule: Q01DX001 (ip), vehicle: other 102 % of control

COc1ccccc1/C=N\NC(=O)c1ccco1
inactive: [7] 95 % of control | [8] 93 % of control | [9] 95 % of control

O=C(O)c1ccncc1C(=O)O
inactive: [6] 87 % of control | [7] 90 % of control | [8] 87 % of control

C=CC1CN2CCC1CC2C(OC(C)=O)c1ccnc2ccc(OC)cc12 (stereo not drawn)
inactive: [6] 97 % of control | [7] 101 % of control | [8] 97 % of control | [9] 92 % of control

CC(C)(c1ccccc1)C(C)(C)c1ccccc1
inactive: [10] 91 % of control | dose: 100.0 mg/kg/injection, schedule: Q04DX003 (ip), vehicle: Klucel (hydroxypropylcellulose) (HPC) 92 % of control | dose: 200.0 mg/kg/injection, schedule: Q04DX003 (ip), vehicle: Klucel (hydroxypropylcellulose) (HPC) 96 % of control | [11] 89 % of control | dose: 400.0 mg/kg/injection, schedule: Q04DX003 (ip), vehicle: Klucel (hydroxypropylcellulose) (HPC) 96 % of control
